Earlier results in patent US20050065129A1, “2-Alkylidene-19-nor-vitamin D derivatives for the treatment of frailty, muscle damage or sarcopenia” (Pfizer Inc, priority 2003, published 2005).

How the values were obtained:
[1] = system: Intestinal Calcium Transport; conditions: chronic 7 days, 130 and/or 260 pmol/day, rats
[2] = system: Serum Calcium (Bone Calcium Mobilization); conditions: chronic 7 days, rats; for bone calcium mobilization activity (in words): 130 and 260 pmol/day

Structure (SMILES) | intestinal calcium transport activity (in words) [1] | bone calcium mobilization activity (in words) [2] | bone calcium mobilization (serum calcium) activity relative to 1,25-(OH)2D3 (native hormone) ([2]; estimate)
C=C1/C(=C\C=C2/CCC[C@]3(C)[C@@H]([C@H](C)CCCC(C)(C)O)CC[C@@H]23)C[C@@H](O)C[C@@H]1O [1,25-(OH)2D3, 1,25-dihydroxyvitamin D3, reference compound] | expected elevation | – | –
C=C1[C@H](O)CC(=C/C=C2\CCC[C@]3(C)[C@@H]([C@H](C)CCCC(C)(C)O)CC[C@@H]23)C[C@H]1O [2-Methylene-19-Nor-1,25-(OH)2D3, 1α,25-dihydroxy-2-methylene-19-nor-vitamin D3] | no intestinal calcium transport activity | extremely strong bone calcium mobilization | 10-100 times
C=C1[C@H](O)CC(=C/C=C2\CCC[C@]3(C)[C@@H]([C@@H](C)CCCC(C)(C)O)CC[C@@H]23)C[C@H]1O [2-Methylene-19-Nor-20S-1,25-(OH)2D3, (20S)-1α,25-dihydroxy-2-methylene-19-nor-vitamin D3] | no significant change | most potent compound tested | –
